Reference: ChEMBL document CHEMBL3132769, “Fragment growing to retain or alter the selectivity of anchored kinase hinge-binding fragments” (Medchemcomm, 2014)

Key:
[1] = target: Fibroblast growth factor receptor 2 (Homo sapiens) (UniProt P21802); assay: Inhibition of human FGFR2 catalytic domain expressed in baculovirus assessed as substrate phosphorylation using fluorescence-labelled peptides as substrate at 420 uM after 90 mins by microfluidic peptide phosphorylation assay
[2] = target: Mitogen-activated protein kinase 14 (Homo sapiens) (UniProt Q16539); assay: Inhibition of human truncated p38 alpha expressed in Escherichia coli cell assessed as substrate phosphorylation using fluorescence-labelled peptides as substrate at […] after 90 mins by microfluidic peptide phosphorylation assay
Mitogen-activated protein kinase 14 (Homo sapiens), sequence (Q16539 whole entry, the tested form may be a part): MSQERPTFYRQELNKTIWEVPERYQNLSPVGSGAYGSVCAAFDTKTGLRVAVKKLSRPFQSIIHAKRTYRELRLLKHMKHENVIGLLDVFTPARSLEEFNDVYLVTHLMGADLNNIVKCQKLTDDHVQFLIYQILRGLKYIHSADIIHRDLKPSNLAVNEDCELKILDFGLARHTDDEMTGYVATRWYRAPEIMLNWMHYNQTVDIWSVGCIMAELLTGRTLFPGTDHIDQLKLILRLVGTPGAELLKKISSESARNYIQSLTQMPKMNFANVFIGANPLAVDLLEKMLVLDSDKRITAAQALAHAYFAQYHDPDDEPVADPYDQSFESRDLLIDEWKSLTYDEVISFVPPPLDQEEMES

[3] = target: T1, cGMP-dependent protein kinase 1 (Homo sapiens) (UniProt Q13976); assay: Inhibition of human full length PKG-1beta expressed in baculovirus assessed as substrate phosphorylation using fluorescence-labelled peptides as substrate at 9 uM after 90 mins by microfluidic peptide phosphorylation assay
T1 sequence (whole entry): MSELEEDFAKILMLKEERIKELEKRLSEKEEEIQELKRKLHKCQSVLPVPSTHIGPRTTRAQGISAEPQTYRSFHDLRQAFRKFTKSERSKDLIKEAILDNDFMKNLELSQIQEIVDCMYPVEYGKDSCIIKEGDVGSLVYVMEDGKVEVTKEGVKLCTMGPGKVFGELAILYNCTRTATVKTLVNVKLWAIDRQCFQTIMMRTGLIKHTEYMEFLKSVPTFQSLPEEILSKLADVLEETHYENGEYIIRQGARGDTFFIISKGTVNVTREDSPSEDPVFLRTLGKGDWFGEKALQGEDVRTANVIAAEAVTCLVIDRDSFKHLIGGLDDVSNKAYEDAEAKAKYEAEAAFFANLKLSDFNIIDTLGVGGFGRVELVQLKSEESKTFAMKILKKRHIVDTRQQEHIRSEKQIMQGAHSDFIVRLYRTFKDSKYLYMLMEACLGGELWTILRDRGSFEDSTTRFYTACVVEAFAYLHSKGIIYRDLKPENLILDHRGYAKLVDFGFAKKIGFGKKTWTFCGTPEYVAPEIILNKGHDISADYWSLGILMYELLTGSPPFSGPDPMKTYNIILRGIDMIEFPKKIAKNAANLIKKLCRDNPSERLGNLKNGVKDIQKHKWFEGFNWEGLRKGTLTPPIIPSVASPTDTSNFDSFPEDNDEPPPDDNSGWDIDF

[4] = target: T2, Serine/threonine-protein kinase 3 (Homo sapiens) (UniProt Q13188); assay: Inhibition of human full length MST2 expressed in baculovirus assessed as substrate phosphorylation using fluorescence-labelled peptides as substrate at 8 uM after 90 mins by microfluidic peptide phosphorylation assay
T2 sequence (whole entry): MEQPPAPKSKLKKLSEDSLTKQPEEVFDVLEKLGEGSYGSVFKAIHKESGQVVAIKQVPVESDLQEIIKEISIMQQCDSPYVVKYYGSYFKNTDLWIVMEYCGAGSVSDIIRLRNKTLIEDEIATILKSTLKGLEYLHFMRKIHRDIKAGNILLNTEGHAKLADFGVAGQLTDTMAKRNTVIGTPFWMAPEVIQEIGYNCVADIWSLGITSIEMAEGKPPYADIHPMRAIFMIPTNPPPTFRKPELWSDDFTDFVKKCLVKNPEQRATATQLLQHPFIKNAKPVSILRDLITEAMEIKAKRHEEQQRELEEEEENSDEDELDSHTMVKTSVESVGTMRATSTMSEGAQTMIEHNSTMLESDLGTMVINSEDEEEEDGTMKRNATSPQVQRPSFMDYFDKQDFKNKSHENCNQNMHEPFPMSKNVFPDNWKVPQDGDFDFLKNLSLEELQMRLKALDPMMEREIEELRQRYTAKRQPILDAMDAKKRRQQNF

[5] = target: Serine/threonine-protein kinase pim-1 (Homo sapiens) (UniProt P11309); assay: Inhibition of human full length PIM1 expressed in baculovirus assessed as substrate phosphorylation using fluorescence-labelled peptides as substrate at 8 uM after 90 mins by microfluidic peptide phosphorylation assay
Serine/threonine-protein kinase pim-1 (Homo sapiens), sequence (P11309 whole entry, looked up, the tested form may be a part): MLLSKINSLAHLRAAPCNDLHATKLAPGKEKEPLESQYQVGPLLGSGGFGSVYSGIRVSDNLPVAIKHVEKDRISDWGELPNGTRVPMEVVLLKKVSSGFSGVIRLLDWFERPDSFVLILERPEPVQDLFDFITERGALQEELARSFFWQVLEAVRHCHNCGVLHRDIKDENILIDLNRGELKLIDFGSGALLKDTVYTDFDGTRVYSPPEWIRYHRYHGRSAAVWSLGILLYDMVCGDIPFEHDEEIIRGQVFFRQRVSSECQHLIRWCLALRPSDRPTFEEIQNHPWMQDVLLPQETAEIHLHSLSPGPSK

[6] = target: RAC-alpha serine/threonine-protein kinase (Homo sapiens) (UniProt P31749); assay: Inhibition of human AKT1 catalytic domain expressed in baculovirus assessed as substrate phosphorylation using fluorescence-labelled peptides as substrate at 8 uM after 90 mins by microfluidic peptide phosphorylation assay
RAC-alpha serine/threonine-protein kinase (Homo sapiens), sequence (P31749 whole entry, the tested form may be a part): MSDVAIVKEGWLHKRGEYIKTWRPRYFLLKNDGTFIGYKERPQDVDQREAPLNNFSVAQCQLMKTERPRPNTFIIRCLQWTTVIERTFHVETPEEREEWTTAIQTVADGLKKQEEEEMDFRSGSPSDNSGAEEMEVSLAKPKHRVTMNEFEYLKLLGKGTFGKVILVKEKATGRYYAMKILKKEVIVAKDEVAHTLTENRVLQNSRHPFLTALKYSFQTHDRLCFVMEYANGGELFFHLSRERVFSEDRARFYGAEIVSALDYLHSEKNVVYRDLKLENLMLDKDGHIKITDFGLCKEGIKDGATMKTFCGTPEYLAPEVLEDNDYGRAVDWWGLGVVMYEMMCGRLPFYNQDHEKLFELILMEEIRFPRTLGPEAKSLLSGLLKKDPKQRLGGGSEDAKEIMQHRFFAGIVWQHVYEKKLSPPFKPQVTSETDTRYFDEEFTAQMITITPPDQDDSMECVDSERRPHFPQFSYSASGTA

[7] = target: T3, Cytoplasmic tyrosine-protein kinase BMX (Homo sapiens) (UniProt P51813); assay: Inhibition of human full length BMX expressed in baculovirus assessed as substrate phosphorylation using fluorescence-labelled peptides as substrate at 2 uM after 90 mins by microfluidic peptide phosphorylation assay
T3 sequence (whole entry): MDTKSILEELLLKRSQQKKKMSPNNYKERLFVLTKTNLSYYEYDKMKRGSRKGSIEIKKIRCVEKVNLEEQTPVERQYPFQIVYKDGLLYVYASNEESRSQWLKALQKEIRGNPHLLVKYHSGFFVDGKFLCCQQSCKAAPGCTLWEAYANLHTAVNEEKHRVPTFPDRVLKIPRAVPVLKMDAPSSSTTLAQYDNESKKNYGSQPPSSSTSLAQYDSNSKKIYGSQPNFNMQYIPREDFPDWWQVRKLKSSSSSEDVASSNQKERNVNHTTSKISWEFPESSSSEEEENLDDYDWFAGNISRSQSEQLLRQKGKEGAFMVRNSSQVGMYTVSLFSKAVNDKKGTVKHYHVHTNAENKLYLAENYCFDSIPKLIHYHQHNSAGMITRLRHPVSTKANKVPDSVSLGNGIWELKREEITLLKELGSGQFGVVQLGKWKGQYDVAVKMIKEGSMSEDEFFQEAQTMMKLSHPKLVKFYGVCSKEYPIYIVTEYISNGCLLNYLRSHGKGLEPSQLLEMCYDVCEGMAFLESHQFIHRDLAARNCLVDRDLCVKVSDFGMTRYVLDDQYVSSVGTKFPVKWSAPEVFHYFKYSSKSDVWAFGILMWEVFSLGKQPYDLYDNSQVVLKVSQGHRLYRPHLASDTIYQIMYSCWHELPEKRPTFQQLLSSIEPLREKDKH

Fibroblast growth factor receptor 2 (Homo sapiens), sequence (P21802 22-821 limits assumed): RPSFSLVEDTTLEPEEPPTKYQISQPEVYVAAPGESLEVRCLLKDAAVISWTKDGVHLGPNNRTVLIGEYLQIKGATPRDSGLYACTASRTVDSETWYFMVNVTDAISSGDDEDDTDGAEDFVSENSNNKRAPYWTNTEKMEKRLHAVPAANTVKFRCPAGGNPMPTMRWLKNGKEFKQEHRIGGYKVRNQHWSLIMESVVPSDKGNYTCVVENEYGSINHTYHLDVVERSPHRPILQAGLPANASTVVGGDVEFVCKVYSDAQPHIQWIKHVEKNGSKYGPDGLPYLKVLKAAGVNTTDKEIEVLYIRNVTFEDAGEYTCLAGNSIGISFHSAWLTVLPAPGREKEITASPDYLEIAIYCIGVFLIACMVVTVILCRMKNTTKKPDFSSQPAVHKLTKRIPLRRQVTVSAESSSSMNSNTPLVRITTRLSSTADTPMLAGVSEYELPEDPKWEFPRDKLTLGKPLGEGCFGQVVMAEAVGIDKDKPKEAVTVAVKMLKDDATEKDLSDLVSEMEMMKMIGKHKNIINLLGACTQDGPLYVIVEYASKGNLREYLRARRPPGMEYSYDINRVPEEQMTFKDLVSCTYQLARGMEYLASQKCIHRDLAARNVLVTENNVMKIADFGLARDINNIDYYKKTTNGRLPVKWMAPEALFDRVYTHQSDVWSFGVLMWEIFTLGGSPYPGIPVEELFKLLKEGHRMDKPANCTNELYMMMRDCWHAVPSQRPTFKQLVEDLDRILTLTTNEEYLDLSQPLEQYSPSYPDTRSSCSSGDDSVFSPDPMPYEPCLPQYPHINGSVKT

SMILES: c1nc(N2CCOCC2)c2nc[nH]c2n1
- inhibition [1]: 93%

SMILES: COC(=O)c1cnc(Nc2cnc(C#N)cn2)cc1NCC1CCNCC1
- inhibition [2]: 2%

SMILES: NCC1CN(c2ncnc3[nH]c4cnccc4c23)CCO1 (configuration not stated)
- inhibition [3]: 12.5%

SMILES: NCC1CCN(c2ncnc3[nH]ccc23)CC1
- inhibition [4]: 73%
- inhibition [5]: 9%
- inhibition [6]: 96%

SMILES: NC1CCN(c2ncnc3[nH]ccc23)CC1
- inhibition [7]: 2%
